Source: PMC10305148, “In Vitro Characterization and Antiviral Susceptibility of Ophidian Serpentoviruses” (Microorganisms, 2023)
In brackets after ≈: the same amount, converted by molar mass. Where two headings read alike, the source gives them in different places.

Key:
[1] = tested on: AnPSV; experiment: CPE reduction assay in DPHt cells; format: cell-based, Antaresian python serpentovirus; details: average ± SD; for EC50: read-out: EC50 (50% effective concentration, CPE reduction assay)
From the text: (§1) Ribavirin was obtained from ICN Pharmaceuticals, Inc. (now Bausch Health, Laval, QC, Canada). Favipiravir was purchased from AdooQ Bioscience (Irvine, CA, USA). NITD-008 was supplied by BEI Resources (Manassas, VA, USA). Enviroximine was purchased from Cayman Chemical (Ann Arbor, MI, USA), and pirodavir was purchased from Med Chem Express (Monmouth Junction, NJ, USA). Infergen (Interferon-alfacon-1), a human consensus interferon, was provided by InterMune, Inc (Brisbane, CA, USA) as an aqueous solution. Solid compounds were dissolved in DMSO at a 20× concentration to yield a final DMSO concentration of <10%. Further dilutions were performed in culture media.
(§2) Diamond python heart cells (DPHt) were grown as described above. Cells were plated in 96-well microtiter plates and grown overnight prior to the addition of the virus and test compounds. A CPE assay was conducted to determine the activity of various antiviral against BPNV, GTSV, and AnPSN. Serial half-log dilutions of the test compounds were made and added to 5 wells of the 96-well plate. Culture media was added to two wells to determine the 50% cytotoxic concentration (CC50), and the virus was added to the other three wells to determine the 50% effective concentrations (EC50). Virus and cell controls were included with each plate. The selective index was determined by dividing the CC50 by the EC50/90 to determine the SI50/90. Two to three replicates of the assays were used to evaluate each compound.

[2] = tested on: BPNV; experiment: CPE reduction assay in DPHt cells; format: cell-based, Ball python nidovirus; details: average ± SD; for EC50: Ball python nidovirus, read-out: EC50 (50% effective concentration, CPE reduction assay)
From the text: as §1, §2

[3] = tested on: GTSV; experiment: CPE reduction assay in DPHt cells; format: cell-based, Green tree python serpentovirus; details: average ± SD; for EC50: read-out: EC50 (50% effective concentration, CPE reduction assay)
From the text: as §1, §2

[4] = tested on: AnPSV; experiment: Virus yield reduction (VYR) assay, supernatant titered on DPHt cells; format: cell-based, Antaresian python serpentovirus; details: for EC90: read-out: EC90 (90% effective concentration, virus yield reduction assay)
[5] = tested on: BPNV; experiment: as above; format: cell-based, Ball python nidovirus; details: for EC90: Ball python nidovirus, read-out: EC90 (90% effective concentration, virus yield reduction assay)
[6] = tested on: GTSV; experiment: as above; format: cell-based, Green tree python serpentovirus; details: for EC90: read-out: EC90 (90% effective concentration, virus yield reduction assay)
[7] = tested on: Diamond python heart cells (DPHt); experiment: Cytotoxicity in uninfected wells of the CPE assay; format: cell-based, Diamond python (Morelia spilota spilota)
Protocol: as §2, with “compound. A confirmatory virus yield reduction (VYR) assay was conducted where supernatant from the CPE assay was collected and titered on DPHt cells to determine the 90% effective concentration (EC90), or the concentration of compound required to reduce the virus titer by one Log10.” for “compound.”

[8] = tested on: AnPNV, BPNV, and GTSV; experiment: CPE reduction assay, summary for all three serpentoviruses; format: cell-based, Ophidian serpentoviruses
From the text: as §1
as §2, with “compound. A confirmatory virus yield reduction (VYR) assay was conducted where supernatant from the CPE assay was collected and titered on DPHt cells to determine the 90% effective concentration (EC90), or the concentration of compound required to reduce the virus titer by one Log10.” for “compound.”

[9] = set-up: method as in PMID 19918064; details: rats; development ceased; cited from earlier work
[10] = set-up: method as in PMID 19918064; details: dogs; development ceased; cited from earlier work
[11] = tested on: Dengue virus; set-up: method as in PMID 19918064; details: animal models; cited from earlier work
[12] = Cytotoxicity in uninfected wells of the CPE assay; format: cell-based, Diamond python (Morelia spilota spilota); details: Diamond python (Morelia spilota spilota), CC50 (50% cytotoxic concentration)
Protocol: as §2, with “compound. A confirmatory virus yield reduction (VYR) assay was conducted where supernatant from the CPE assay was collected and titered on DPHt cells to determine the 90% effective concentration (EC90), or the concentration of compound required to reduce the virus titer by one Log10.” for “compound.”

[13] = tested on: pathogenic herpesvirus isolated from tortoises; set-up: method as in PMID 9323927; details: doses of 25 or 50 µg/mL, turtle heart cell cultures; cited from earlier work
[14] = set-up: method as in PMID 17168855; details: long-term treatment; cited from earlier work
[15] = Diamond python (Morelia spilota spilota)

Compound | EC50 (50% effective concentration, CPE reduction assay) [1] | EC50 (50% effective concentration, CPE reduction assay) [2] | EC50 (50% effective concentration, CPE reduction assay) [3] | antiviral activity (in words) [8] | EC50 [1] | EC50 [2] | EC50 [3] | CC50 [12] | CC50 (50% cytotoxic concentration) [7, 15] | further results
CC(C)S(=O)(=O)n1c(N)nc2ccc(/C(=N/O)c3ccccc3)cc21 [Enviroximine] | >0.24 µg/mL | >0.38 µg/mL | >4.9 µg/mL |  |  |  |  |  |  | 
C#C[C@@]1(O)[C@H](O)[C@@H](CO)O[C@H]1n1ccc2c(N)ncnc21 [NITD-008] | 0.6 ± 0.3 µg/mL (≈ 2.07 µM) | 0.7 ± 0.4 µg/mL (≈ 2.41 µM) | 1.4 ± 0.8 µg/mL (≈ 4.82 µM) | potent antiviral activity |  |  |  |  |  | EC90 (90% effective concentration, virus yield reduction assay) [4]: 0.76 µg/mL (≈ 2.62 µM); EC90 (90% effective concentration, virus yield reduction assay) [5]: 1.5 µg/mL (≈ 5.17 µM); EC90 (90% effective concentration, virus yield reduction assay) [6]: 4.8 µg/mL (≈ 16.5 µM); CC50 (50% cytotoxic concentration) ([7]; DPHt cells, table line of AnPSV): 33 ± 9.0 µg/mL (≈ 114 µM); CC50 (50% cytotoxic concentration) ([7]; DPHt cells, table line of BPNV): 37 ± 26 µg/mL (≈ 127 µM); CC50 (50% cytotoxic concentration) ([7]; DPHt cells, table line of GTSV): 55 ± 42 µg/mL (≈ 189 µM); toxicity (in words) [9]: toxicity was observed; toxicity (in words) [10]: toxicity was observed; efficacy (in words) [11]: showed promise
NC(=O)c1nc(F)c[nH]c1=O [Favipiravir] |  |  |  |  | > 320 µg/mL | > 320 µg/mL | > 320 µg/mL | > 320 µg/mL | >320 µg/mL | 
Nc1nc(O)c2ncn(COC(CO)CO)c2n1 [ganciclovir] |  |  |  |  |  |  |  |  |  | activity (in words) [13]: active
NC(=O)c1ncn([C@@H]2O[C@H](CO)[C@@H](O)[C@H]2O)n1 [Ribavirin] |  |  |  | potent antiviral activity | 2 ± 0.3 µg/mL (≈ 8.19 µM) | 0.9 ± 0.2 µg/mL (≈ 3.69 µM) | 7.9 ± 3 µg/mL (≈ 32.3 µM) | > 1000 µg/mL | >1000 µg/mL | EC90 ([4]; AnPSV, concentration reducing virus titer by one Log10): 12 µg/mL (≈ 49.1 µM); EC90 ([5]; BPNV, concentration reducing virus titer by one Log10): 1.6 µg/mL (≈ 6.55 µM); EC90 ([6]; GTSV, concentration reducing virus titer by one Log10): 14 µg/mL (≈ 57.3 µM); adverse effect (in words) [14]: associated with anemia
Nc1nc2c(ncn2COCCO)c(=O)[nH]1 [Acyclovir] |  |  |  |  |  |  |  |  |  | activity (in words) [13]: active
CCC(CC)COC(=O)[C@H](C)N[P@](=O)(OC[C@H]1O[C@@](C#N)(c2ccc3c(N)ncnn23)[C@H](O)[C@@H]1O)Oc1ccccc1 [Remdesivir] |  |  |  | potent antiviral activity | < 0.022 µg/mL | < 0.022 µg/mL | < 0.022 µg/mL | 2.2 ± 1.6 µg/mL (≈ 3.65 µM) | 2.3 ± 1.8 µg/mL (≈ 3.82 µM) | EC90 [4]: < 0.001 µg/mL; EC90 [5]: < 0.001 µg/mL; EC90 [6]: < 0.001 µg/mL
CCOC(=O)c1ccc(OCCC2CCN(c3ccc(C)nn3)CC2)cc1 [Pirodavir, pirodavir] |  |  |  |  | 1.1 µg/mL (≈ 2.98 µM) | 2.6 µg/mL (≈ 7.04 µM) | 0.86 µg/mL (≈ 2.33 µM) | 7.3 µg/mL (≈ 19.8 µM) | >10 µg/mL | 
Interferon-alfacon-1 [Infergen] | >0.01 µg/mL | >0.01 µg/mL | >0.01 µg/mL |  |  |  |  |  |  | CC50 (50% cytotoxic concentration) [7]: 0.01 µg/mL
